Reference: PMC10424185, “C-2 Thiophenyl Tryptophan Trimers Inhibit Cellular Entry of SARS-CoV-2 through Interaction with the Viral Spike (S) Protein” (Journal of Medicinal Chemistry, 2023)

Legend:
[1] = tested on: SARS-CoV-2 virus carrying the D614G S mutation; assay type: cell-based
[2] = tested on: SARS-CoV-2 virus carrying the D614G S mutation; assay type: cell-based; remark: listed apart in the source

| Compound | relative virus production vs mock-treatment, VeroE6-TMPRSS2 cells [1] | relative virus production vs mock-treatment, A549-ACE2 cells [2] |
| --- | --- | --- |
| NCCOCCOCCC(=O)NCC(=O)NC(CCC(=O)NC(Cc1c(Sc2ccc([N+](=O)[O-])cc2)[nH]c2ccccc12)C(=O)O)(CCC(=O)NC(Cc1c(Sc2ccc([N+](=O)[O-])cc2)[nH]c2ccccc12)C(=O)O)CCC(=O)NC(Cc1c(Sc2ccc([N+](=O)[O-])cc2)[nH]c2ccccc12)C(=O)O (stereo not shown) [Compound 63] | 0.059 ± 0.018 | 0.035 ± 0.032 |
| CCC(CC)COC(=O)[C@H](C)N[P@](=O)(OC[C@H]1O[C@@](C#N)(c2ccc3c(N)ncnn23)[C@H](O)[C@@H]1O)Oc1ccccc1 [remdesivir, reference compound] | 0.002 ± 0.001 | 0.002 ± 0.002 |
